We go through one compound from ChEMBL document CHEMBL5579854, “Targeting Relevant HDACs to Support the Survival of Cone Photoreceptors in Inherited Retinal Diseases: Identification of a Potent Pharmacological Tool with In Vitro and In Vivo Efficacy” (J Med Chem, 2024).

Activity calls are given as the source filed them. The calls are words filed in the database; no cut-off is given here. Bounds are passed on as bounds.

The nature of series [1]: Stability of compound at pH 7.4 measured after 24 hrs. It counts as physicochemical. The settings on record: buffer, read-out: Stability.
Series [2] in a line: Metabolic stability in mouse liver microsomes assessed as compound recovery at 10 uM incubated for 60 mins in presence of NADPH by HPLC analysis. Format: ADME, Microsome. To be noted: read-out: Stability. Background: Liver microsomes are a subcellular fraction often used to study metabolism.
Series [3] is described as follows: Toxicity in Langendorff-perfused Wistar rat heart assessed as effect on chronotropic activity at 0.1 to 30 uM. Format: tissue-based. The settings on record: dose 0.1-30 µM.
Series [4] deals with 661W. The series is described as follows: Cytoprotective effect against H2O2-induced oxidative stress in mouse 661W cells assessed as increase in acetylated histone H3 level at 5 uM incubated for 24 hrs followed by H2O2 treatment for 3 hrs by Western blot analysis. Format: functional, cell-based. The settings on record: time 27.0 hrs.
Series [5] is described as follows: Toxicity in zebrafish larval dye model harboring atp6v0e1/ucd6 assessed as morphological change in eye at 80 to 100 uM treated for 2 days by toluidine blue staining based analysis. It counts as tissue-based, Danio rerio. The settings on record: in vivo, 48 h, dose 80-100 µM, time 2 day.
The subject of series [6] is Cone cell. The series is described as follows: Rescue of cone cell morphology in eyes of C57BL/6J mouse model harboring rd10 mutant at 30 uM, IVT administered bilaterally measured after 5 days by IHC analysis. It counts as functional, tissue-based. The settings on record: Eye, time 5.0 day.
Series [7] has as its system Cone cell. The series is described as follows: Rescue of cone morphology with numerous longer outer segments in eyes of C57BL/6J mouse model harboring rd10 mutant at 5 to 30 uM, IVT administered bilaterally measured after 5 days by fluorescence microscopy. Format: functional, tissue-based. To be noted: Eye, dose 5-30 µM, time 5.0 day.
A short description of series [8]: Induction of cone cell survival rate in eyes of C57BL/6J mouse model harboring rd10 mutant at 30 uM, IVT administered bilaterally measured after 5 days by fluorescence microscopy relative to control. To be noted: time 5 day. Format: functional, Eye.
The nature of series [9]: Induction of cone cell survival rate in eyes of C57BL/6J mouse model harboring rd10 mutant at 5 uM, IVT administered bilaterally measured after 5 days by fluorescence microscopy relative to control. Format: functional, Eye. The settings on record: time 5 day.
The subject of series [10] is Mus musculus. The series is described as follows: Upregulation of […] mRNA level in eyes of C57BL/6J mouse model harboring rd10 mutant at 5 to 30 uM, IVT administered bilaterally measured after 5 days by RT-PCR analysis. Format: functional, tissue-based. The settings on record: Eye, dose 5-30 µM, time 5.0 day.
Series [11] deals with Mus musculus. The series is described as follows: Upregulation of ARR3 mRNA level in eyes of C57BL/6J mouse model harboring rd10 mutant at 5 to 30 uM, IVT administered bilaterally measured after 5 days by RT-PCR analysis. To be noted: Eye, dose 5-30 µM, time 5.0 day. It counts as functional, tissue-based.
Series [12] has as its system Mus musculus. The series is described as follows: Upregulation of GNAT2 mRNA level in eyes of C57BL/6J mouse model harboring rd10 mutant at 5 to 30 uM, IVT administered bilaterally measured after 5 days by RT-PCR analysis. It counts as functional, tissue-based. To be noted: Eye, dose 5-30 µM, time 5.0 day.
Series [13] concerns Mus musculus. The series is described as follows: Upregulation of Nr3c1 mRNA level in eyes of C57BL/6J mouse model harboring rd10 mutant at 5 to 30 uM, IVT administered bilaterally measured after 5 days by RT-PCR analysis. It counts as functional, tissue-based. The settings on record: Eye, dose 5-30 µM, time 5.0 day.

Turning to `O=C(NO)c1ccc(CNC(=O)N2CCc3c(c4ccccc4n3Cc3ccccc3)C2)cc1`, the remaining at 24 h in series [1] was above 99%. Besides, the remaining at 1 h, 10 µM in [2] came to 87%. Besides, the Activity result in [3] is on record as “Non-Toxic”; in series [5] it was “Non-Toxic”; in series [8] it was 17%; in series [9], 4%. Also, the outcome in [4], in series [6], in [7], in [10], in series [11] and in series [12] was Active. The result in series [13] was Active.
